Assay results from patent US6506392B2, “Theraputic topical solution for skin and associated methods of use” (priority 2000, dated 2003).

System: skin exhibiting psoriasis
Experiment: topical application to skin exhibiting psoriasis (Example 1)
Format: in vivo, human
Settings: one subject, treatments used before the solution
Source text: A further understanding of the present invention will be afforded by a consideration of the following non-limiting examples. In these examples, the “full strength” 100% solution was utilized. These examples are illustrative of the principals of the present invention and are not intended to limit the scope of the invention to the exemplary uses and formulations.
Three subjects, two male and one […], suffering from psoriasis, applied the solution to areas on their bodies and rubbed in the solution with their fingertips several times per day or as needed. Areas of application included knees and elbows.
It is important to note that some of the subjects had suffered from psoriasis for an extended period of time and had tried a variety of treatments. One subject had previously utilized various tars, cortisones, temovate and methotrexate treatments.

SMILES | outcome of previous psoriasis treatments
CN(Cc1cnc2nc(N)nc(N)c2n1)c1ccc(C(=O)N[C@@H](CCC(=O)O)C(=O)O)cc1 [methotrexate] | without success
CCC(=O)O[C@]1(C(=O)CCl)[C@@H](C)C[C@H]2[C@@H]3CCC4=CC(=O)C=C[C@]4(C)[C@@]3(F)[C@@H](O)C[C@@]21C [temovate] | without success
